Our source for the T/C values is PubChem BioAssay AID330 (DTP/NCI, 2004).

Several values for one entry are separate records, joined by “and”; a condition that tells them apart may be missing. Equal entries are not always repeated. Inconclusive results and toxic doses are left out.

This test has as its system P388 leukemia ip, CD2F1 mice, survival T/C. Description: NCI In Vivo Anticancer Drug Screen. Data for tumor model P388 Leukemia (intraperitoneal) in CD2F1 (CDF1) mice. The settings on record: endpoint: median survival time, higher = longer survival. Summed up:
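Mice carrying the transplanted tumor received test compound or vehicle. Survival was recorded in each group, and the value is the treated-group measurement divided by that of the vehicle-treated control group.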

The mark [1] stands for this setting: dose: 12.5 mg/kg/injection, schedule: Q01DX005 (ip), vehicle: saline.
The mark [2] stands for this setting: dose: 25.0 mg/kg/injection, schedule: Q01DX005 (ip), vehicle: saline.
Setting [3] is: dose: 50.0 mg/kg/injection, schedule: Q01DX005 (ip), vehicle: saline.
Setting [4] is: dose: 50.0 mg/kg/injection, schedule: Q01DX009 (ip), vehicle: saline with Tween-80.
[5] abbreviates: dose: 50.0 mg/kg/injection, schedule: Q01DX005 (ip), vehicle: Klucel (hydroxypropylcellulose) (HPC).
Where [6] appears, read: dose: 100.0 mg/kg/injection, schedule: Q01DX005 (ip), vehicle: Klucel (hydroxypropylcellulose) (HPC).
Where [7] appears, read: dose: 50.0 mg/kg/injection, schedule: Q01DX005 (ip), vehicle: saline with Tween-80.
Where [8] appears, read: dose: 100.0 mg/kg/injection, schedule: Q01DX005 (ip), vehicle: saline with Tween-80.
The mark [9] stands for this setting: dose: 200.0 mg/kg/injection, schedule: Q01DX005 (ip), vehicle: saline with Tween-80.

Consider `CC(=O)C1CO1` (stereo not given), for which the T/C was 105 % of control under setting [1]; 107 % of control under setting [2]; 110 % of control and 116 % of control under setting [3].
Take `FC(F)(F)C[P+](c1ccccc1)(c1ccccc1)c1ccccc1`: the T/C was 100 % of control and 109 % of control (dose: 12.5 mg/kg/injection, schedule: Q01DX001 (ip), vehicle: saline); 108 % of control and 117 % of control (dose: 25.0 mg/kg/injection, schedule: Q01DX001 (ip), vehicle: saline); 104 % of control (dose: 50.0 mg/kg/injection, schedule: Q01DX001 (ip), vehicle: saline).
Take `CCCOC1=C(N2CC2)C(=O)C(OCCC)=C(N2CC2)C1=O`: the T/C is 106 % of control (dose: 0.89 mg/kg/injection, schedule: Q01DX009 (ip), vehicle: saline with Tween-80); 179 % of control (dose: 3.0 mg/kg/injection, schedule: Q01DX009 (ip), vehicle: saline with Tween-80); 181 % of control (dose: 4.0 mg/kg/injection, schedule: Q01DX009 (ip), vehicle: saline with Tween-80); 186 % of control (dose: 6.0 mg/kg/injection, schedule: Q01DX009 (ip), vehicle: saline with Tween-80); 190 % of control (dose: 6.25 mg/kg/injection, schedule: Q01DX009 (ip), vehicle: saline with Tween-80); 109 % of control (dose: 9.0 mg/kg/injection, schedule: Q01DX009 (ip), vehicle: saline with Tween-80).
On to `CC(C)(C)[Si](C)(C)ONC(N)=O`, for which the T/C runs as follows: (dose: 12.5 mg/kg/injection, schedule: Q01DX009 (ip), vehicle: distilled water + Tween-80) 99 % of control; (dose: 25.0 mg/kg/injection, schedule: Q01DX009 (ip), vehicle: distilled water + Tween-80) 94 % of control; (dose: 50.0 mg/kg/injection, schedule: Q01DX009 (ip), vehicle: distilled water + Tween-80) 93 % of control; (dose: 100.0 mg/kg/injection, schedule: Q01DX009 (ip), vehicle: distilled water + Tween-80) 88 % of control; (dose: 200.0 mg/kg/injection, schedule: Q01DX009 (ip), vehicle: distilled water + Tween-80) 90 % of control.
For the molecule `c1ccc(-c2ccccc2NC2=NCCO2)cc1`, the T/C is, setting by setting: (dose: 12.5 mg/kg/injection, schedule: Q01DX009 (ip), vehicle: saline with Tween-80) 104 % of control; (dose: 25.0 mg/kg/injection, schedule: Q01DX009 (ip), vehicle: saline with Tween-80) 104 % of control; under setting [4], 95 % of control.
As to `CCC(/C=C/c1ccccc1)=N\NC(=O)c1ccc(Cl)c(Cl)c1`, the T/C is 88 % of control and 89 % of control (dose: 60.0 mg/kg/injection, schedule: Q01DX005 (ip), vehicle: saline with Tween-80); 88 % of control (dose: 120.0 mg/kg/injection, schedule: Q01DX005 (ip), vehicle: saline with Tween-80); 92 % of control and 97 % of control (dose: 240.0 mg/kg/injection, schedule: Q01DX005 (ip), vehicle: saline with Tween-80).
`COC(=O)c1cc(=O)n(-c2ccccc2C(F)(F)F)c(SC)n1`: the T/C reads like this: (dose: 50.0 mg/kg/injection, schedule: Q04DX003 (ip), vehicle: Klucel (hydroxypropylcellulose) (HPC)) 95 % of control and 97 % of control; (dose: 100.0 mg/kg/injection, schedule: Q04DX003 (ip), vehicle: Klucel (hydroxypropylcellulose) (HPC)) 99 % of control and 100 % of control; (dose: 200.0 mg/kg/injection, schedule: Q04DX003 (ip), vehicle: Klucel (hydroxypropylcellulose) (HPC)) 104 % of control and 111 % of control; (dose: 400.0 mg/kg/injection, schedule: Q04DX003 (ip), vehicle: Klucel (hydroxypropylcellulose) (HPC)) 110 % of control.
As for `O=C1C=CC2(C=C1)CCN(C(=O)C(F)(F)F)Cc1cc3c(cc12)OCO3`, the T/C is 97 % of control (dose: 100.0 mg/kg/injection, schedule: Q04DX002 (ip), vehicle: saline with Tween-80); 91 % of control (dose: 200.0 mg/kg/injection, schedule: Q04DX002 (ip), vehicle: saline with Tween-80); 93 % of control (dose: 400.0 mg/kg/injection, schedule: Q04DX002 (ip), vehicle: saline with Tween-80).
For `CCN(CC)CCSCCCNc1cc(OC)cc2cccnc12`, the T/C is 93 % of control under setting [1]; 88 % of control under setting [2]; 95 % of control and 98 % of control under setting [3].
In the case of `COc1nc(/C=C/c2ccccc2)c([N+](=O)[O-])c(OC)n1`, the T/C is 103 % of control (dose: 100.0 mg/kg/injection, schedule: Q04DX003 (ip), vehicle: saline); 103 % of control (dose: 200.0 mg/kg/injection, schedule: Q04DX003 (ip), vehicle: saline); 100 % of control (dose: 400.0 mg/kg/injection, schedule: Q04DX003 (ip), vehicle: saline).
Regarding `COCCOCCOCCOCCOCCOCCOCCOC(=O)CCn1cc(F)c(=O)[nH]c1=O`, the T/C (dose: 62.5 mg/kg/injection, schedule: Q04DX002 (ip), vehicle: saline) was 99 % of control; the T/C (dose: 125.0 mg/kg/injection, schedule: Q04DX002 (ip), vehicle: saline) was 108 % of control; the T/C (dose: 250.0 mg/kg/injection, schedule: Q04DX002 (ip), vehicle: saline) is 101 % of control; the T/C (dose: 500.0 mg/kg/injection, schedule: Q04DX002 (ip), vehicle: saline) was 109 % of control.
As to `O=C(Nc1ccc(-c2ccc(NC(=O)C34CC5CC(CC(C5)C3)C4)cc2)cc1)C12CC3CC(CC(C3)C1)C2`, the T/C (dose: 25.0 mg/kg/injection, schedule: Q01DX005 (ip), vehicle: Klucel (hydroxypropylcellulose) (HPC)) was 98 % of control and 100 % of control; the T/C under setting [5] is 101 % of control; the T/C under setting [6] was 89 % of control and 92 % of control; the T/C (dose: 200.0 mg/kg/injection, schedule: Q01DX005 (ip), vehicle: Klucel (hydroxypropylcellulose) (HPC)) was 97 % of control.
With `Cc1cc(=O)n(-c2ccc(-c3ccc(-n4c(C)c(C(=O)O)c(C)cc4=O)cc3)cc2)c(C)c1C(=O)O`, the T/C is, setting by setting: under setting [7], 102 % of control; under setting [8], 100 % of control; under setting [9], 106 % of control.
With `COc1ccc(CSC(=S)Nc2cc(Cl)c(Cl)cc2Cl)cc1`, the T/C runs as follows: (dose: 12.5 mg/kg/injection, schedule: Q01DX009 (ip), vehicle: saline) 88 % of control; (dose: 25.0 mg/kg/injection, schedule: Q01DX009 (ip), vehicle: saline) 97 % of control; (dose: 50.0 mg/kg/injection, schedule: Q01DX009 (ip), vehicle: saline) 99 % of control; (dose: 50.0 mg/kg/injection, schedule: Q01DX009 (ip), vehicle: suspension in saline) 93 % of control; (dose: 100.0 mg/kg/injection, schedule: Q01DX009 (ip), vehicle: suspension in saline) 103 % of control.
Take `Nc1ccc2nc3cc4c5ccccc5c(=O)c5cccc(c54)n3c(=O)c2c1`: under “dose: 50.0 mg/kg/injection, schedule: Q01DX005 (ip), vehicle: Klucel + Tween-80”, the T/C is 104 % of control.
In the case of `CC(=O)OC1CC(=O)OC(C)(C)C2CC(=O)C3(C)C(CCC4(C)C(c5ccoc5)OC(=O)C5OC543)C12C` (stereo not given), the T/C reads like this: under setting [4], 99 % of control; (dose: 100.0 mg/kg/injection, schedule: Q01DX009 (ip), vehicle: saline with Tween-80) 97 % of control; (dose: 200.0 mg/kg/injection, schedule: Q01DX009 (ip), vehicle: saline with Tween-80) 97 % of control.
Consider `Nc1cccc2c1C(=O)c1ccc(C(=O)O)cc1C2=O`, for which the T/C runs as follows: under setting [5], 101 % of control; under setting [6], 104 % of control.
Consider `CC1=NCCN=C(C)C1N=Nc1ccc(S(=O)(=O)N=C(N)N)cc1`, for which the T/C by setting is: (dose: 100.0 mg/kg/injection, schedule: Q04DX003 (ip), vehicle: saline with Tween-80) 90 % of control; (dose: 200.0 mg/kg/injection, schedule: Q04DX003 (ip), vehicle: saline with Tween-80) 92 % of control; (dose: 400.0 mg/kg/injection, schedule: Q04DX003 (ip), vehicle: saline with Tween-80) 90 % of control.
Turning to `C#Cc1cccc(N=Cc2cc(Cl)cc(Cl)c2O)c1`, the T/C under setting [7] was 102 % of control, the T/C under setting [8] is 102 % of control and the T/C under setting [9] is 108 % of control.
As to `Brc1cnc2nc(Cc3ccccc3)[nH]c2c1`, the T/C (dose: 100.0 mg/kg/injection, schedule: Q01DX001 (ip), vehicle: saline with Tween-80) is 97 % of control; the T/C (dose: 200.0 mg/kg/injection, schedule: Q01DX001 (ip), vehicle: saline with Tween-80) is 113 % of control; the T/C (dose: 400.0 mg/kg/injection, schedule: Q01DX001 (ip), vehicle: saline with Tween-80) was 97 % of control.
With `CCN(CC)C(=O)C(Cc1ccc(OC)c(OC)c1)C(Cc1ccc(OC)c(OC)c1)C(=O)O` (stereo not given), the T/C runs as follows: (dose: 100.0 mg/kg/injection, schedule: Q04DX003 (ip), vehicle: other) 95 % of control; (dose: 200.0 mg/kg/injection, schedule: Q04DX003 (ip), vehicle: other) 95 % of control; (dose: 400.0 mg/kg/injection, schedule: Q04DX003 (ip), vehicle: other) 95 % of control.
